Measurements as given in PubChem BioAssay (NCI).
Values joined by “and” are separate entries in the source; they are usually repeats but may differ in a detail not shown here. Identical values can stand only once.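 Method: 48-hour compound exposure of cells in 96-well plates, five concentrations, linear interpolation of endpoints. TGI: total growth inhibition.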

Experiments:
Test in all cases: inhibition of tumour cell growth, NCI panel, 48 h
EKVX NSCLC = test system: EKVX NSCLC
HCC-2998 colon = test system: HCC-2998 colon
MCF7 breast = test system: MCF7 breast
MOLT-4 leukemia = test system: MOLT-4 leukemia
NCI-H460 lung = test system: NCI-H460 lung
SNB-75 CNS = test system: SNB-75 CNS
SW-620 colon = test system: SW-620 colon

SMILES	TGI (EKVX NSCLC)	TGI (HCC-2998 colon)	TGI (MCF7 breast)	TGI (MOLT-4 leukemia)	TGI (NCI-H460 lung)	TGI (SNB-75 CNS)	TGI (SW-620 colon)
CCOC(CI)O[C@@H]1C=C[C@H](OC(C)=O)C1 (stereo partly drawn)	> 100 µM	> 100 µM	> 100 µM	> 100 µM	> 100 µM	> 100 µM	> 100 µM
COc1ccc2c(c1)CCCN1Cc3cc(OC)c(OC)cc3CC21 (stereo not drawn)	> 100 µM	> 100 µM	> 100 µM	> 100 µM	> 100 µM	> 100 µM	> 100 µM
C[C@H]1CCCCC[C@@H]2CC(=O)CC2C(=O)CCC(=O)O1 (stereo partly drawn)	> 100 µM	> 100 µM	> 100 µM	> 100 µM	> 100 µM	> 100 µM	> 100 µM
Nc1ccc(Nc2c3ccccc3nc3ccccc23)cc1	> 10 µM	> 10 µM	> 10 µM	> 10 µM	8.07 µM		> 10 µM
COCOCC1CCCN1CN1CCC[C@H]1COCOC (stereo partly drawn)	> 100 µM		> 100 µM	> 100 µM	> 100 µM	> 100 µM	> 100 µM
C[C@]12CC[C@H](O)C=C1CC[C@@H]1[C@@H]2CC[C@]2(C)C(=N/O)/C(=C/c3ccncc3)C[C@@H]12	> 100 µM	12.5 µM	16.7 µM	> 100 µM	30.7 µM	43.8 µM	> 100 µM
COc1c(C)c(C/C=C(\C)CCCCO)c(OC)c(OC)c1OC	> 100 µM		> 100 µM	> 100 µM	35.1 µM	> 100 µM	> 100 µM
CCN(CC)CCn1c2cc3c(cc2c(=O)c2cccnc21)OCO3	> 10 µM	> 10 µM	> 10 µM	> 10 µM	7.79 µM	> 10 µM	> 10 µM
O=C(Cc1ccccc1)NNc1nc(NNC(=O)c2ccncc2)nc(Nc2ccccc2)n1	> 10 µM	> 10 µM	> 10 µM	> 10 µM	> 10 µM	> 10 µM	
CC(C)c1c(O[Si](C(C)C)(C(C)C)C(C)C)c2c3c(ccc4c3c1OC4(C)C)C(C)CC2 (stereo not drawn)	> 100 µM		> 100 µM	> 100 µM	> 100 µM	> 100 µM	> 100 µM
Cc1ccc(CC2(OCCN(C)C)CCC(C(C)(C)C)CC2)cc1 (stereo not drawn)	21.6 µM and 28 µM	4.26 µM and 4.73 µM	7.74 µM and 8.45 µM	4.11 µM and 4.8 µM	3.71 µM and 3.57 µM	21.9 µM and 20.3 µM	5.84 µM and 8 µM
COc1ccc(C2=Nn3c(nc4sc(-c5ccccc5)cc4c3=O)SC2)cc1	> 100 µM	> 100 µM	> 100 µM	> 100 µM	> 100 µM		> 100 µM
CC(C)C1SCc2nc3ccccc3n21 (stereo not drawn)	> 100 µM	> 100 µM	45.8 µM	81.6 µM	> 100 µM		> 100 µM
O=C1Oc2ccccc2C(=O)/C1=C/N1C(=O)N/C(=C\c2cccc(O)c2)C1=O	> 100 µM	> 100 µM	> 100 µM	> 100 µM	> 100 µM	> 100 µM	> 100 µM
CCOC(=O)CCC(NC(=O)c1ccc(Nc2nc3ccccc3n3cccc23)cc1)C(=O)OCC (stereo not drawn)	> 100 µM	> 100 µM	> 100 µM	82.8 µM	> 100 µM	53.6 µM	> 100 µM
NC1=CN(Cc2ccccc2)C2=N/C(=C\c3ccccc3)C(=O)N12	> 100 µM	> 100 µM	> 100 µM	> 100 µM	> 100 µM	> 100 µM	> 100 µM
COC(=O)[C@]12CCC(C)(C)C[C@H]1C1=CC[C@@H]3[C@@]4(C)CC[C@H](OC5OC(CO)C(O)C(O)C5OC5OC(CO)C(O)C(O)C5O)C(C)(C)[C@@H]4CC[C@@]3(C)[C@]1(C)CC2 (stereo partly drawn)	26 µM	37.9 µM	24.4 µM	40.8 µM	30.2 µM	26.4 µM	27.7 µM
CC(C)Oc1ccc(CNC2=NCCO2)c2ccccc12	29.2 µM	25.3 µM	29.6 µM	19.8 µM	26.7 µM	34.7 µM	31.7 µM
COc1ccc2oc(=O)c3c(c2c1C)OC(C)(C)C=C3	> 100 µM	> 100 µM	> 100 µM	> 100 µM	> 100 µM	> 100 µM	> 100 µM
CN1C(=O)[C@@H]2N(CSC2(C)C)C1=S	> 100 µM	> 100 µM	> 100 µM	> 100 µM	> 100 µM	> 100 µM	> 100 µM
COc1ccc([C@H]2C=C(c3cc(F)c(Cl)cc3Cl)NC(=S)N2)cc1	> 100 µM	70.5 µM	> 100 µM	> 100 µM	54.3 µM	66.5 µM	> 100 µM
COc1ccccc1N1C(=O)CS(=O)(=O)C1c1cccc(Oc2ccccc2)c1 (stereo not drawn)	42.6 µM		20.4 µM	38.8 µM	29.4 µM	48.2 µM	82.8 µM
CN1C(=O)c2c(c3c4ccccc4n(C4OC(CO)C(O)C(O)C4O)c3c3[nH]c4ccccc4c23)C1=O (stereo not drawn)	9.09 µM	7.72 µM	18.7 µM	3.57 µM	12.1 µM	15.9 µM	16.2 µM
Cc1cc2c(cc1C)C(=O)C1(C2)Cc2c(ccc(C)c2C)C1=O (stereo not drawn)	> 100 µM	> 100 µM	> 100 µM	> 100 µM	> 100 µM	> 100 µM	> 100 µM
O=C1C[C@@H](Sc2ccccc2)C2(OCCO2)[C@H]2ON3CCC[C@@H]3[C@@H]12		20.8 µM	17.2 µM	8.7 µM	18.7 µM		13.5 µM
NNc1ccccc1Cl	> 100 µM	> 100 µM	> 100 µM	> 100 µM	> 100 µM	> 100 µM	> 100 µM
CC[C@H](C)C1=C(O)[N@+]2([O-])Oc3ccc(-c4c(O)c(O)c(-c5ccc(OC(C)=O)cc5)c(OC(C)=O)c4OC(C)=O)cc3O[C@]2([C@@H](C)CC)C(=O)N1O	> 50 µM	24.5 µM	> 50 µM	35 µM	> 50 µM		23.6 µM
